Data: ChEMBL document CHEMBL1201862, “PubChem BioAssay data set” (2004)
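Five concentrations, 48 hours, 96-well plates. GI50 is the concentration that inhibits growth by half.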 Active and inactive are the calls of the source. Rule as the data show it: active = GI50 up to about 1.1 µM and inactive = higher.

How the values were obtained:
Assay in all cases: NCI anticancer screen, dose series, 48 h
OVCAR-5 = tested on: OVCAR-5
SF-539 = tested on: SF-539
UACC-62 = tested on: UACC-62
HT-29 = tested on: HT-29
OVCAR-8 = tested on: OVCAR-8
MCF7 = tested on: MCF7
MOLT-4 = tested on: MOLT-4
A498 = tested on: A498
SK-OV-3 = tested on: SK-OV-3
COLO 205 = tested on: COLO 205
HCT-116 = tested on: HCT-116
OVCAR-4 = tested on: OVCAR-4
EKVX = tested on: EKVX
CCRF-CEM = tested on: CCRF-CEM
M14 = tested on: M14
MDA-N = tested on: MDA-N
HCC 2998 = tested on: HCC 2998
SK-MEL-2 = tested on: SK-MEL-2
SNB-19 = tested on: SNB-19
CAKI-1 = tested on: CAKI-1

Measured: GI50

O=C(O)/C=C/c1ccc2c(c1)CC1(Cc3ccccc3C1)C2
inactive: OVCAR-5 > 100 µM | SF-539 96.4 µM | UACC-62 > 100 µM | HT-29 39.8 µM | OVCAR-8 66.1 µM | MCF7 43.6 µM | MOLT-4 29.5 µM | A498 75.3 µM | SK-OV-3 > 100 µM | COLO 205 27.8 µM | HCT-116 23 µM | OVCAR-4 39 µM | EKVX > 100 µM | CCRF-CEM 91.2 µM | M14 48.1 µM | MDA-N > 100 µM | HCC 2998 93.8 µM | SK-MEL-2 39.3 µM

O=c1[nH]c(=O)n(C2CC(O)C(CO)O2)cc1C1=NC1 (stereo not drawn)
inactive: OVCAR-5 > 100 µM | SF-539 > 100 µM | UACC-62 > 100 µM | HT-29 > 100 µM | OVCAR-8 > 100 µM | MCF7 > 100 µM | MOLT-4 > 100 µM | A498 > 100 µM | SK-OV-3 > 100 µM | COLO 205 > 100 µM | HCT-116 > 100 µM | OVCAR-4 > 100 µM | EKVX > 100 µM | M14 > 100 µM | MDA-N > 100 µM | SNB-19 > 100 µM | HCC 2998 > 100 µM | SK-MEL-2 > 100 µM

COC(=O)C(Cc1ccccc1)NC(=O)CSc1nnc(COc2ccc(Cl)cc2)n1-c1ccccc1 (stereo not drawn)
inactive: OVCAR-5 24.8 µM | SF-539 22.4 µM | UACC-62 14.6 µM | HT-29 23.4 µM | MCF7 23.4 µM | MOLT-4 34 µM | A498 17 µM | SK-OV-3 15.8 µM | COLO 205 20.4 µM | HCT-116 23.1 µM | OVCAR-4 21.4 µM | CCRF-CEM 16.8 µM | M14 20.2 µM | MDA-N 20.5 µM | SNB-19 49.9 µM | HCC 2998 5.61 µM | SK-MEL-2 17.7 µM

CC[C@@H]([C@H](O)c1ccccc1Cl)[N+](=O)[O-]
inactive: OVCAR-5 > 100 µM | SF-539 59 µM | UACC-62 > 100 µM | HT-29 > 100 µM | OVCAR-8 > 100 µM | MCF7 16.4 µM | A498 > 100 µM | CAKI-1 > 100 µM | SK-OV-3 > 100 µM | COLO 205 > 100 µM | HCT-116 4.25 µM | OVCAR-4 > 100 µM | EKVX > 100 µM | CCRF-CEM 19.2 µM | M14 > 100 µM | MDA-N 2.35 µM | SNB-19 > 100 µM | HCC 2998 > 100 µM | SK-MEL-2 > 100 µM

C1COCCN1.CN(C)c1ccc(-c2c(C#N)c(N)nc(S)c2C#N)cc1
inactive: OVCAR-5 > 100 µM | SF-539 > 100 µM | UACC-62 35 µM | HT-29 > 100 µM | OVCAR-8 > 100 µM | MCF7 53.1 µM | A498 24.9 µM | CAKI-1 43.9 µM | SK-OV-3 > 100 µM | COLO 205 > 100 µM | HCT-116 > 100 µM | OVCAR-4 35 µM | EKVX > 100 µM | CCRF-CEM 38.5 µM | M14 34 µM | MDA-N 54.1 µM | SNB-19 39.9 µM | HCC 2998 56.1 µM | SK-MEL-2 34.4 µM

N#C/C(=C/NC(N)=S)C(N)=O
inactive: OVCAR-5 > 100 µM | SF-539 > 100 µM | HT-29 > 100 µM | OVCAR-8 > 100 µM | MCF7 > 100 µM | A498 > 100 µM | CAKI-1 > 100 µM | SK-OV-3 > 100 µM | COLO 205 > 100 µM | HCT-116 > 100 µM | OVCAR-4 > 100 µM | EKVX > 100 µM | M14 > 100 µM | MDA-N > 100 µM | SNB-19 > 100 µM | HCC 2998 > 100 µM | SK-MEL-2 > 100 µM
